Assay results as given in BindingDB's records for doi:10.1016/S0960-894X(96)00551-3 (1996).

What was measured:
[1] = molecular target: Endothelin A receptor (Oryctolagus cuniculus); experiment: Compound was tested for its ability to inhibit Endothelin A receptor induced arachidonic acid release(AARA) in rabbit renal artery vascular smooth muscles.
[2] = molecular target: Endothelin A receptor (Oryctolagus cuniculus); experiment: Antagonistic activity against endothelin A receptor in rabbit renal artery vascular smooth muscle cells.
[3] = Compound was tested for its ability to inhibit Endothelin A receptor induced arachidonic acid release(AARA) in rabbit renal artery vascular smooth muscles.

Structure (SMILES)	IC50 [1]	IC50 [2]	other results
Cc1cc(C(C(N)=O)c2ccc3c(c2)OCO3)c2ccccc2n1 (stereo unspecified) [2-Benzo[1,3]dioxol-5-yl-2-(2-methyl-quinolin-4-yl)-acetamide]	13 µM	–	–
O=C(OCc1ccc2c(c1)OCO2)C(c1ccc2c(c1)OCO2)c1c2ccccc2nc2ccccc12 (stereo unspecified) [Acridin-9-yl-benzo[1,3]dioxol-5-yl-acetic acid benzo[1,3]dioxol-5-ylmethyl ester]	–	8.7 µM	–
OCC(c1ccc2c(c1)OCO2)c1c2ccccc2nc2ccccc12 (stereo unspecified) [2-Acridin-9-yl-2-benzo[1,3]dioxol-5-yl-ethanol]	–	–	IC50 [3]: 10 µM
COC(=O)C(Cc1c2ccccc2cc2ccccc12)c1ccc2c(c1)OCO2 (stereo unspecified) [3-Anthracen-9-yl-2-benzo[1,3]dioxol-5-yl-propionic acid methyl ester]	–	> 25 µM	–

More lines, main results first:

IC50 [1]	IC50 [2]	Structure (SMILES)	other results
–	7.5 µM	O=C(OCc1ccccc1)C(c1ccc2c(c1)OCO2)c1c2ccccc2nc2ccccc12 (stereo unspecified) [Acridin-9-yl-benzo[1,3]dioxol-5-yl-acetic acid benzyl ester]	–
2.8 µM	–	COC(=O)C(c1ccc2c(c1)OCO2)c1cc(C)nc2ccccc12 (stereo unspecified) [Benzo[1,3]dioxol-5-yl-(2-methyl-quinolin-4-yl)-acetic acid methyl ester]	–
